Source: patent US20190125896A1, “ANTI-INFECTIVE COMPOSITIONS COMPRISING PHYTOGLYCOGEN NANOPARTICLES” (MIREXUS BIOTECHNOLOGIES INC., priority 2016, published 2019)
In brackets after ≈: the same amount, converted by molar mass.

Legend:
[1] = tested on: Pseudomonas aeruginosa PAO1; assay: MIC broth micro-dilution; format: cell-based; details: P. aeruginosa PAO1, Mueller-Hinton broth, read-out: MIC value established empirically
Experimental: Minimum inhibitory concentration (MIC) assays were done to evaluate antibacterial properties of cationized phytoglycogen. The MIC is defined as “the lowest concentration of an anti-infective agent that prevents visible growth of a micro-organism in an agar or broth dilution susceptibility test”.
MIC assessments against bacteria were performed following broth micro-dilution in accordance with the Clinical and Laboratory Standards Institute document M07-A9: Methods for Dilution Antimicrobial Susceptibility Tests for Bacteria that Grow Aerobically; Approved Standard. A Gram-positive organism, Bacillus subtilis 168, and two Gram-negative organisms, Escherichia coli AB264 (K-12) and Pseudomonas aeruginosa PAO1 were assessed. Long-term stock cultures of organisms were maintained at −80° C. in glycerol (15% vol/vol). Stocks were revived by sub-culturing onto trypticase soy agar plates, grown for 18 hrs at 37° C. and then stored at 4° C. for up to one week. Overnight cultures were grown by inoculating Mueller-Hinton broth with 3-4 colonies from stock plates and incubating for 20-24 hrs at 37° C. and 150 rpm. […] Plates were incubated at 37° C. for 20 h, at which points wells were scored for growth. […] Cationized phytoglycogen, prepared according to the alternative procedure detailed in Example 3, was also assessed in double-dilution increments from 19 to 10 000 μg.ml^−1. […]

P. aeruginosa PAO1 = assay: Sensitization to antibiotics: MIC in medium supplemented with phytoglycogen; format: cell-based, Pseudomonas aeruginosa; details: P. aeruginosa
Experimental: MIC assays as defined in Example 15 were performed in sterile and untreated 96 well microtitre plates according to the broth micro-dilution technique described in either the Clinical and Laboratory Standards Institute document M07-A9: Methods for Dilution Antimicrobial Susceptibility Tests for Bacteria that Grow Aerobically; Approved Standard and document M27-A2 Reference Method for Broth Dilution Antifungal Susceptibility Testing of Yeasts; Approved Standard—Second Edition, with the exception that, where indicated, medium was additionally supplemented with native or cationized phytoglycogen. Assessments done using C. utilis ATCC9950, B. subtilis 168 and E. coli AB264 employed native or cationized phytoglycogen at concentrations ⅛, ¼, ½ their respective MIC values for cationized phytoglycogen. Assessments of the opportunistic pathogen P. aeruginosa PAO1 were made at final in-assay concentrations of 0.5, 1 or 10 mg native or cationized phytoglycogen.ml^−1. Experiments were performed as in-assay duplicates, and were repeated a minimum of three times (n=6).
MIC assays were performed in duplicate within each experiment and were repeated a minimum three times to confirm the data (n=6). MIC values with a four-fold or greater change relative to the non-supplemented medium MIC represent a statistically-significant change in MIC value. Only those antibiotic-cationized phytoglycogen combinations which caused a four-fold change relative to the non-supplemented medium MIC were deemed as indicative of resulting in potentiation (MIC value was less), or tolerance (MIC value increased).

[2] = tested on: P. aeruginosa PAO1 biofilm; assay: Biofilm eradication: 20 h biofilms treated with antibiotic and cationized phytoglycogen; format: cell-based, Pseudomonas aeruginosa; details: 24 h, medium alone
Experimental: Biofilm growth and treatments were performed in sterile 96 well polystyrene plates. Sterile solutions of gamma-irradiated cationized phytoglycogen was prepared by reconstitution and dilution as required in sterile Mueller-Hinton broth. P. aeruginosa PAO1 stocks were revived by sub-culturing P. aeruginosa PAO1 (37° C., 150 rpm, 16-18 h) in Mueller-Hinton broth (Oxoid; Fisher Scientific, Canada). The inoculum was prepared immediately prior to use by diluting in sterile Mueller-Hinton broth to a final in-assay cell density of 5×10^5 CFU.ml^−1. 100 μl of this solution was transferred to wells and incubated (37° C., 150 rpm). Sterile broth was the negative growth control. At 20 h, plates were transferred to a biological safety cabinet, well contents were gently aspirated and the wells rinsed with sterile 0.9% (wt/vol) NaCl. […] Positive growth controls contained inoculated medium, non-supplemented or with 1 or 10 mg cationized phytoglycogen.ml^−1. Plates were incubated at 37° C. for a further 24 h, after which biofilms were quantitated as previously described. Experiments were done in quadruplicate replicate and repeated three times (n=12).

[3] = tested on: P. aeruginosa PAO1 biofilm; assay: Biofilm formation at sub-MIC tobramycin; format: cell-based, Pseudomonas aeruginosa; details: non-supplemented medium
Experimental: The potential for cationized phytoglycogen to limit enhanced biofilm formation at sub-MIC concentrations of the aminoglycoside tobramycin was assessed in sterile 96 well polystyrene plates. P. aeruginosa PAO1 stocks were revived by sub-culturing P. aeruginosa PAO1 in Mueller-Hinton broth (Oxoid; Fisher Scientific, Canada) and grown for 20-22 h (37° C., 150 rpm). Sterile solutions of gamma-irradiated cationized phytoglycogen was prepared by reconstitution and dilution as required in sterile Mueller-Hinton broth. […] The inoculum was prepared immediately prior to use by diluting in sterile Mueller-Hinton broth, with a final in-assay cell density of 5×10^5 CFU.ml^−1. Plates were incubated statically at 37° C. At 20 h, biofilms were stained and quantitated according to the previously described protocol (Example 23). Experiments were done in quadruplicate replicate and repeated three times (n=12).

## NC[C@H]1O[C@H](O[C@H]2[C@H](O)[C@@H](O[C@H]3O[C@H](CO)[C@@H](O)[C@H](N)[C@H]3O)[C@H](N)C[C@@H]2N)[C@H](N)C[C@@H]1O [tobramycin]
[1]
  MIC: 0.4 µg/mL (≈ 0.856 µM)
P. aeruginosa PAO1; 0.5 mg cationized phytoglycogen · ml^−1 Mueller-Hinton Broth
  ↓ Fold-change in MIC (cationized phytoglycogen) MIC.5 mg/ml: 2 fold
P. aeruginosa PAO1; 1 mg cationized phytoglycogen · ml^−1 Mueller-Hinton Broth
  ↓ Fold-change in MIC (cationized phytoglycogen) MIC1 mg/ml: 2 fold
P. aeruginosa PAO1; 10 mg cationized phytoglycogen · ml^−1 Mueller-Hinton Broth
  ↓ Fold-change in MIC (cationized phytoglycogen) MIC10 mg/ml: 1 fold
P. aeruginosa PAO1; Pseudomonas aeruginosa, PAO1, non-supplemented Mueller-Hinton Broth, read-out: MIC
  MIC: 0.25 µg/mL
[2]; 0.125 to 2 times the MIC
  change in biofilm of 20 h biofilms: net increase in biofilm proliferation
[2]; four-fold the MIC
  reduction of biofilm relative to the initial biofilm: 40%
[3]; tobramycin at % -MIC
  factor of biofilm accumulation relative to the medium only control: 1.5
[3]; tobramycin at ¼-MIC
  factor of biofilm accumulation relative to the medium only control: 1.33
[3]; tobramycin at ½-MIC
  factor of biofilm accumulation relative to the medium only control: > 2.00
